Data as given in patent US20060069132A1, “Azolecarboxamide herbicides” (priority 2004, published 2006).

Legend:
barnyardgrass [1] = experiment: Test B pre-/postemergence herbicide test; format: in vivo, Echinochloa crus-galli; details: for Plant response rating, Barnyardgrass: preemergence; for Barnyardgrass plant response rating: postemergence, visual rating, scale 0 (no effect) to 100 (complete control)
Method in brief: (§1)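 Plants compared with untreated controls 13–15 days post-treatment and given a visual 0–100 injury score. Applications: preemergence to seeds; postemergence at 1- to 4-leaf (2–18 cm); paddy species flooded, 2-leaf stage. Vehicle non-phytotoxic, surfactant included.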

Surinam grass = experiment: Test B pre-/postemergence herbicide test; format: in vivo, Urochloa decumbens; details: for Plant response rating, Surinam Grass: preemergence; for Surinam Grass plant response rating: postemergence, visual rating, scale 0 (no effect) to 100 (complete control)
Method in brief: (§2)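 Response was scored visually 13 to 15 days after treatment against untreated greenhouse controls, 0 meaning no effect and 100 complete control. Formulations (solvent mixture plus surfactant) went onto soil after planting, onto foliage of 1- to 4-leaf plants, and onto 2-leaf plants in a flooded paddy set including rice and barnyardgrass.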

cocklebur = experiment: Test B pre-/postemergence herbicide test; format: in vivo, Xanthium strumarium; details: for Plant response rating, Cocklebur: preemergence; for Cocklebur plant response rating: postemergence, visual rating, scale 0 (no effect) to 100 (complete control)
Method in brief: as §1

corn = experiment: Test B pre-/postemergence herbicide test; format: in vivo, Zea mays; details: for Plant response rating, Corn: preemergence; for Corn plant response rating: postemergence, visual rating, scale 0 (no effect) to 100 (complete control)
Method in brief: as §2

large crabgrass = experiment: Test B pre-/postemergence herbicide test; format: in vivo, Digitaria sanguinalis; details: for Plant response rating, Crabgrass, Large: preemergence; for Crabgrass, Large plant response rating: postemergence, visual rating, scale 0 (no effect) to 100 (complete control)
Method in brief: as §2

giant foxtail = experiment: Test B pre-/postemergence herbicide test; format: in vivo, Setaria faberi; details: for Plant response rating, Foxtail, Giant: preemergence; for Foxtail, Giant plant response rating: postemergence, visual rating, scale 0 (no effect) to 100 (complete control)
Method in brief: as §2

morningglory = experiment: Test B pre-/postemergence herbicide test; format: in vivo, Ipomoea coccinea; details: for Plant response rating, Morningglory: preemergence; for Morningglory plant response rating: postemergence, visual rating, scale 0 (no effect) to 100 (complete control)
Method in brief: as §1

pigweed = experiment: Test B pre-/postemergence herbicide test; format: in vivo, Amaranthus retroflexus; details: for Plant response rating, Pigweed: preemergence; for Pigweed plant response rating: postemergence, visual rating, scale 0 (no effect) to 100 (complete control)
Method in brief: as §2

velvetleaf = experiment: Test B pre-/postemergence herbicide test; format: in vivo, Abutilon theophrasti; details: for Plant response rating, Velvetleaf: preemergence; for Velvetleaf plant response rating: postemergence, visual rating, scale 0 (no effect) to 100 (complete control)
Method in brief: as §2

blackgrass = experiment: Test B postemergence herbicide test; format: in vivo, Alopecurus myosuroides; details: postemergence, visual rating, scale 0 (no effect) to 100 (complete control)
Method in brief: (§3)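 Formulated test chemicals went onto postemergence plants measuring 2 to 18 cm, at one to four leaves. For the paddy assay, species had reached two leaves. Scoring took place 13–15 days later by eye, relative to untreated plants, using 0 for no effect up to 100 for full control.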

wheat = experiment: Test B postemergence herbicide test; format: in vivo, Triticum aestivum; set-up: key to Wheat plant response rating: 0 = no effect, 100 = complete control; details: postemergence, 500 g ai/ha; visual rating, scale 0 (no effect) to 100 (complete control)
Method in brief: (§4)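 After treating 2-leaf paddy plants or 2–18 cm postemergence plants (1 to 4 leaves) with formulated chemical, researchers kept them in a greenhouse for 13–15 days. Effects were judged visually versus controls: 0 indicates none, 100 total control.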

wild oat = experiment: Test B postemergence herbicide test; format: in vivo, Avena fatua; details: postemergence, visual rating, scale 0 (no effect) to 100 (complete control)
Method in brief: as §4

rice = experiment: Test B flooded paddy test; format: in vivo, Oryza sativa; details: 1000 g ai/ha, visual rating, scale 0 to 100 (0 no effect, 100 complete control), 13 to 15 days
Method in brief: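 Postemergence plants were sprayed with formulated test chemicals at 2 to 18 cm height (1- to 4-leaf stage); paddy species were grown to the 2-leaf stage. After 13 to 15 days in a greenhouse, injury was rated visually against untreated controls on a 0–100 scale (0 = no effect, 100 = complete control).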

[2] = system: small flower umbrella sedge; experiment: Test B flooded paddy test; format: in vivo, Cyperus difformis; details: 1000 g ai/ha, visual rating, scale 0 to 100 (0 no effect, 100 complete control), 13 to 15 days
Method in brief: as §3

ducksalad = experiment: Test B flooded paddy test; format: in vivo, Heteranthera limosa; details: 1000 g ai/ha, visual rating, scale 0 to 100 (0 no effect, 100 complete control), 13 to 15 days
Method in brief: as §3

barnyardgrass [3] = experiment: Test B flooded paddy test; format: in vivo, Echinochloa crus-galli; details: 1000 g ai/ha, visual rating, scale 0 to 100 (0 no effect, 100 complete control), 13 to 15 days
Method in brief: as §3

[4] = 500 g ai/ha, visual rating 0-100, 0 no effect, 100 complete control
[5] = 125 g ai/ha, 0 to 100 scale, 0 is no effect, 100 is complete control

CCn1nc(C(C)(C)C)cc1C(=O)Nc1cccc(C(N)=O)n1 [Compound 162, 6-[[[3-(1,1-dimethylethyl)-1-ethyl-1H-pyrazol-5-yl]carbonyl]amino]-2-pyridinecarboxamide]
Plant response rating, Barnyardgrass (barnyardgrass [1]; [4]): 100
Barnyardgrass plant response rating (barnyardgrass [1]; 125 g ai/ha): 0
Barnyardgrass plant response rating (barnyardgrass [1]; 500 g ai/ha): 30
Plant response rating, Barnyardgrass (barnyardgrass [1]; [5]): 100
Plant response rating, Surinam Grass (Surinam grass; [4]): 100
Surinam Grass plant response rating (Surinam grass; 125 g ai/ha): 0
Surinam Grass plant response rating (Surinam grass; 500 g ai/ha): 40
Plant response rating, Surinam Grass (Surinam grass; [5]): 90
Plant response rating, Cocklebur (cocklebur; [4]): 90
Cocklebur plant response rating (cocklebur; 125 g ai/ha): 10
Cocklebur plant response rating (cocklebur; 500 g ai/ha): 60
Plant response rating, Cocklebur (cocklebur; [5]): 30
Plant response rating, Corn (corn; [4]): 80
Corn plant response rating (corn; 125 g ai/ha): 0
Corn plant response rating (corn; 500 g ai/ha): 0
Plant response rating, Corn (corn; [5]): 30
Plant response rating, Crabgrass, Large (large crabgrass; [4]): 100
Crabgrass, Large plant response rating (large crabgrass; 125 g ai/ha): 20
Crabgrass, Large plant response rating (large crabgrass; 500 g ai/ha): 40
Plant response rating, Crabgrass, Large (large crabgrass; [5]): 100
Plant response rating, Foxtail, Giant (giant foxtail; [4]): 100
Foxtail, Giant plant response rating (giant foxtail; 125 g ai/ha): 20
Foxtail, Giant plant response rating (giant foxtail; 500 g ai/ha): 30
Plant response rating, Foxtail, Giant (giant foxtail; [5]): 100
Plant response rating, Morningglory (morningglory; [4]): 80
Morningglory plant response rating (morningglory; 125 g ai/ha): 0
Morningglory plant response rating (morningglory; 500 g ai/ha): 60
Plant response rating, Morningglory (morningglory; [5]): 20
Plant response rating, Pigweed (pigweed; [4]): 100
Pigweed plant response rating (pigweed; 125 g ai/ha): 40
Pigweed plant response rating (pigweed; 500 g ai/ha): 80
Plant response rating, Pigweed (pigweed; [5]): 100
Plant response rating, Velvetleaf (velvetleaf; [4]): 100
Velvetleaf plant response rating (velvetleaf; 125 g ai/ha): 60
Velvetleaf plant response rating (velvetleaf; 500 g ai/ha): 80
Plant response rating, Velvetleaf (velvetleaf; [5]): 90
Blackgrass plant response rating (blackgrass; 125 g ai/ha): 20
Blackgrass plant response rating (blackgrass; 500 g ai/ha): 50
Wheat plant response rating (wheat): 10
Oat, Wild plant response rating (wild oat; 125 g ai/ha): 20
Oat, Wild plant response rating (wild oat; 500 g ai/ha): 40
Rice plant response rating (rice): 80
Sedge, Umbrella plant response rating [2]: 80
Ducksalad plant response rating (ducksalad): 80
Barnyardgrass plant response rating (barnyardgrass [3]): 80
